Experiments:
dog NPC1L1 [1] = target: T1, dog NPC1L1 (Canis lupus familiaris, UniProt A0A8I3RZG1); assay: [3H]AS binding to dog NPC1L1 transiently expressed in TsA201 cells; details: for IC50: 4.65 nM [3H]AS, 4 h, 37° C., read-out: IC50 inhibition of [3H]AS binding; for Ki: dog NPC1L1/TsA201 cells, read-out: Ki (competition with [3H]AS)
Procedure: rNPC1L1/HEK293 and TsA201 cells were seeded at a density of 10,000 cells per well in 96-well poly-D-lysine coated plates and cells were allowed to attach for approximately 18 h at 37° C. TsA201 cells were subsequently transfected with dog NPC1L1/pcDNA5/FRT according to the manufacturer's instructions (Roche) and incubated for 3 days at 37° C. MDCKII-derived, LLC-PKI, HepG2, or CaCo-2 cells were seeded at a density of 25,000 cells per well in 96-well tissue culture treated plates, and cells were allowed to attach and differentiate for approximately 72 h at 37° C., except for CaCo-2 cells where differentiation took approximately 14 days at 37° C. […] Duplicate samples were averaged for each experimental point. […] Dissociation kinetics were determined by addition of 100 μM EZE-gluc, and incubating for different periods of time. Nonspecific binding was defined in the presence of 100 μM EZE-gluc. At the end of the incubation period, cells were washed twice with 200 μl of pre-warmed DMEM to separate bound from free ligand, 1% SDS was added to the wells followed by 5 ml of Scintillant, and radioactivity associated with cells was determined using a β-counter. […] Thereafter, plates were placed on ice and cells were washed twice with ice-cold PBS, followed by ice-cold acid wash with DMEM, pH 3.5, for 1, 5 or 15 minutes. […] For Transwell experiments, MDCKII cells were seeded at 200,000 cells/well in a 24-well plate and incubated for 3 days at 37° C. […] Thereafter, both apical and basolateral compartments were washed three times with PBS, and the Transwell filter was cut out and its associated radioactivity determined using afi-counter. Data from saturation, competition and ligand dissociation experiments were analyzed as described in the literature; see, Priest, et al., 2004 Biochemistry 43:9866-9876; Knaus et al., 1995 Biochemistry 34:13627-13634. The association rate, k1, was determined by employing the pseudo-first-order rate equation k1=kobs([LR]e/[L][LR]max)) where [LR]max is the concentration of the complex at equilibrium, [L] is the concentration of ligand, [LR]max is the total receptor concentration, kobs is the slope of the pseudo-first order plot, ln([LR]e/([LR]e−[LR]t)) versus time, and [LR]t is the receptor-ligand complex at one given time point t.
To further validate this statement, cloned dog NPC1L1 was transiently expressed in TsA201 cells and binding of [^3]AS to these cells was then characterized (FIG. 5 and Table 1).

MDCKII-Flp cells = assay: [3H]cholesterol flux into MDCKII-Flp cells; format: cell-based, dog; details: 10 μM PS, 5.5% βmCD pre-treatment
Procedure: (§1) Flux assays were performed essentially as described by Yu et al., 2006 J Biol. Chem. 281:6616-6624. Briefly, cell growth medium was completely aspirated and replaced with 200 μl of 5% LPDS containing the appropriate concentration of compound and incubated at 37° C./3 h in a 5% CO2 incubator. Media was subsequently aspirated from cells and cells were incubated in 200 μl of 0-5.5% βmCD dissolved and filtered through a […] filter at 37° C./45 minutes in a 5% CO2 incubator. Media was dumped from cells that were then washed twice with 125 μl of 5% LPDS before media was aspirated and [3H]cholesterol complexed to BSA in 5% LPDS was added; see Yu et al., 2006 J. Biol. Chem. 281:6616-6624. After 45 minute incubation, cells were washed twice with DMEM, thoroughly aspirated and then 1% SDS was added prior to extraction for scintillation counting.
To validate MDCKII cells as an appropriate surrogate system for monitoring NPC1L1-dependent processes, we evaluated their ability to perform EZE-sensitive cholesterol flux using a similar protocol to that recently reported. This assay makes use of the ability of βmCD to deplete membrane-bound cholesterol. Subsequent exposure of cells to [^3H] cholesterol provides a time-dependent flux of this substrate into the cells. […]

dog NPC1L1 [2] = target: T1, dog NPC1L1; assay: [3H]cholesterol flux into dNPC1L1/MDCKII-Flp cells; format: cell-based
Procedure: as §1
Further evidence for the role of NPC1L1 expression levels on EZE-sensitive [^3H]cholesterol influx was obtained by analyzing the properties of MDCKII-Flp cells over-expressing dog NPC1L1 (dNPC1L1/MDCKII-Flp cells) in an inducible manner.
To further characterize the [^3H] cholesterol influx process into MDCK cells, the potency of EZE-like compound PS for inhibiting [^3H] cholesterol uptake was determined. […]

T1 sequence (A0A8I3RZG1 entry or part of it): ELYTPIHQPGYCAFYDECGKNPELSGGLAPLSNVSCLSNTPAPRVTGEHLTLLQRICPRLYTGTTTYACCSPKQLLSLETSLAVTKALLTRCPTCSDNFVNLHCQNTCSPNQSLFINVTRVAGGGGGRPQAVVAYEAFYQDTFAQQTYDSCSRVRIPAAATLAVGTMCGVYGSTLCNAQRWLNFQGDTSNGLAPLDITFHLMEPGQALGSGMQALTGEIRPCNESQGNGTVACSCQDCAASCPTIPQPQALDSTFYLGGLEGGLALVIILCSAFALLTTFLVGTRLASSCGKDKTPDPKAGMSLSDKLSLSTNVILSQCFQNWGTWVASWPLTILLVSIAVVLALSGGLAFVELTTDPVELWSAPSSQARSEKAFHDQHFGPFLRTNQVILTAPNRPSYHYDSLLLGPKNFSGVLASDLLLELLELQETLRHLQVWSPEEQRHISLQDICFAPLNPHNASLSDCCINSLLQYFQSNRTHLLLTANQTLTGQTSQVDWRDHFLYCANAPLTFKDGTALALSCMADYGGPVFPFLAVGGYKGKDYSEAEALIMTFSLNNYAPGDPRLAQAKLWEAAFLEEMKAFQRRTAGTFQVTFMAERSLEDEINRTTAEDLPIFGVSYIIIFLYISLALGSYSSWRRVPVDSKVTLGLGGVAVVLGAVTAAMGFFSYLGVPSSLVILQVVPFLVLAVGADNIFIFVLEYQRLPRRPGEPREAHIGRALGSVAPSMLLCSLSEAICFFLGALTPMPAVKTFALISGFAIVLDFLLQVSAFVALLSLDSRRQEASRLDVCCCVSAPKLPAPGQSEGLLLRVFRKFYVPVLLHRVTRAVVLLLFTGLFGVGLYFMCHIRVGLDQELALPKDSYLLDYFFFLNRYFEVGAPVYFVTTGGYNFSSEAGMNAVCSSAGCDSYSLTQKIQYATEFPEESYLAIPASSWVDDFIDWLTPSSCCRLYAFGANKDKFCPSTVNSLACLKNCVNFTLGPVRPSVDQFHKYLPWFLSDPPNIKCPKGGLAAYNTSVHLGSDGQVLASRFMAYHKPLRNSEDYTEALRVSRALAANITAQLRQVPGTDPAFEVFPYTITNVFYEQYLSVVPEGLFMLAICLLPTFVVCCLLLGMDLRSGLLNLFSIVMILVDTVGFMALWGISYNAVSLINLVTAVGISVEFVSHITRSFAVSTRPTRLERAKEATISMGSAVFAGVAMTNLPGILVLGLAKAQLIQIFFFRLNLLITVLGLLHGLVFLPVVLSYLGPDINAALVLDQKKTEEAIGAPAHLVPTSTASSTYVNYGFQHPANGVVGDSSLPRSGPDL

| Structure (SMILES) | IC50 (dog NPC1L1 [1]) [nM] | Ki (dog NPC1L1 [1]) [nM] | blockade of [3H]cholesterol influx (MDCKII-Flp cells) | blockade of [3H]cholesterol influx (dog NPC1L1 [2]; 10 μM PS, 5.5% βmCD, after induction with 4 mM sodium butyrate) | IC50 (dog NPC1L1 [2]; dNPC1L1/MDCKII-Flp, FIG. 7C, read-out: IC50 inhibition of [3H]cholesterol uptake) [nM] |
| --- | --- | --- | --- | --- | --- |
| O=C1[C@H](CC[C@H](O)c2ccc(F)cc2)[C@@H](c2ccc(O)cc2)N1c1ccc(F)cc1 [EZE, Ezetimibe] | 111 | 21.5 ± 7.56 |  |  |  |
| COC(=O)[C@H]1O[C@@H](Oc2ccc([C@@H]3[C@@H](CC[C@H](O)c4ccc(F)cc4)C(=O)N3c3ccc(C#CCNS(C)(=O)=O)cc3)cc2)[C@H](O)[C@@H](O)[C@@H]1O [PS, 4-[(2S,3R)-3-[(3S)-3-(4-fluorophenyl)-3-hydroxypropyl]-1-(4-{3-[(methylsulfonyl)amino]prop-1-yn-1-yl}phenyl)-4-oxoazetidin-2-yl]phenyl methyl-β-D-glucopyranosiduronate] | 3.73 | 0.97 ± 0.08 | marginally blocked | almost completely blocked | 0.32 ± 0.09 |
| O=C(O)[C@H]1O[C@@H](Oc2ccc([C@@H]3[C@@H](CC[C@H](O)c4ccc(F)cc4)C(=O)N3c3ccc(F)cc3)cc2)[C@H](O)[C@@H](O)[C@@H]1O [EZE-gluc, ezetimibe glucuronide] | 27 | 5.51 ± 1.52 |  |  |  |

Source: patent US20100184094A1, “USE OF MDCK CELLS IN THE EVALUATION OF CHOLESTEROL MODULATORS” (priority 2007, published 2010)
